The values that follow come from ChEMBL document CHEMBL6127106, “Novel Far-Red Fluorescent 1,4-Dihydropyridines for L-Type Calcium Channel Imaging” (J Med Chem, 2024).

The target of data set [1] is T1, Voltage-dependent L-type calcium channel subunit alpha-1C (Homo sapiens, UniProt Q13936). In words: Antagonist activity at Cav1.2 (unknown origin) stably expressed in HEK293 cells at 10 uM assessed as inhibition of LTCC current by Whole cell patch clamp assay relative to control. It is filed as cell-based. To be noted: read-out: Activity.
T1 sequence (Q13936 whole entry): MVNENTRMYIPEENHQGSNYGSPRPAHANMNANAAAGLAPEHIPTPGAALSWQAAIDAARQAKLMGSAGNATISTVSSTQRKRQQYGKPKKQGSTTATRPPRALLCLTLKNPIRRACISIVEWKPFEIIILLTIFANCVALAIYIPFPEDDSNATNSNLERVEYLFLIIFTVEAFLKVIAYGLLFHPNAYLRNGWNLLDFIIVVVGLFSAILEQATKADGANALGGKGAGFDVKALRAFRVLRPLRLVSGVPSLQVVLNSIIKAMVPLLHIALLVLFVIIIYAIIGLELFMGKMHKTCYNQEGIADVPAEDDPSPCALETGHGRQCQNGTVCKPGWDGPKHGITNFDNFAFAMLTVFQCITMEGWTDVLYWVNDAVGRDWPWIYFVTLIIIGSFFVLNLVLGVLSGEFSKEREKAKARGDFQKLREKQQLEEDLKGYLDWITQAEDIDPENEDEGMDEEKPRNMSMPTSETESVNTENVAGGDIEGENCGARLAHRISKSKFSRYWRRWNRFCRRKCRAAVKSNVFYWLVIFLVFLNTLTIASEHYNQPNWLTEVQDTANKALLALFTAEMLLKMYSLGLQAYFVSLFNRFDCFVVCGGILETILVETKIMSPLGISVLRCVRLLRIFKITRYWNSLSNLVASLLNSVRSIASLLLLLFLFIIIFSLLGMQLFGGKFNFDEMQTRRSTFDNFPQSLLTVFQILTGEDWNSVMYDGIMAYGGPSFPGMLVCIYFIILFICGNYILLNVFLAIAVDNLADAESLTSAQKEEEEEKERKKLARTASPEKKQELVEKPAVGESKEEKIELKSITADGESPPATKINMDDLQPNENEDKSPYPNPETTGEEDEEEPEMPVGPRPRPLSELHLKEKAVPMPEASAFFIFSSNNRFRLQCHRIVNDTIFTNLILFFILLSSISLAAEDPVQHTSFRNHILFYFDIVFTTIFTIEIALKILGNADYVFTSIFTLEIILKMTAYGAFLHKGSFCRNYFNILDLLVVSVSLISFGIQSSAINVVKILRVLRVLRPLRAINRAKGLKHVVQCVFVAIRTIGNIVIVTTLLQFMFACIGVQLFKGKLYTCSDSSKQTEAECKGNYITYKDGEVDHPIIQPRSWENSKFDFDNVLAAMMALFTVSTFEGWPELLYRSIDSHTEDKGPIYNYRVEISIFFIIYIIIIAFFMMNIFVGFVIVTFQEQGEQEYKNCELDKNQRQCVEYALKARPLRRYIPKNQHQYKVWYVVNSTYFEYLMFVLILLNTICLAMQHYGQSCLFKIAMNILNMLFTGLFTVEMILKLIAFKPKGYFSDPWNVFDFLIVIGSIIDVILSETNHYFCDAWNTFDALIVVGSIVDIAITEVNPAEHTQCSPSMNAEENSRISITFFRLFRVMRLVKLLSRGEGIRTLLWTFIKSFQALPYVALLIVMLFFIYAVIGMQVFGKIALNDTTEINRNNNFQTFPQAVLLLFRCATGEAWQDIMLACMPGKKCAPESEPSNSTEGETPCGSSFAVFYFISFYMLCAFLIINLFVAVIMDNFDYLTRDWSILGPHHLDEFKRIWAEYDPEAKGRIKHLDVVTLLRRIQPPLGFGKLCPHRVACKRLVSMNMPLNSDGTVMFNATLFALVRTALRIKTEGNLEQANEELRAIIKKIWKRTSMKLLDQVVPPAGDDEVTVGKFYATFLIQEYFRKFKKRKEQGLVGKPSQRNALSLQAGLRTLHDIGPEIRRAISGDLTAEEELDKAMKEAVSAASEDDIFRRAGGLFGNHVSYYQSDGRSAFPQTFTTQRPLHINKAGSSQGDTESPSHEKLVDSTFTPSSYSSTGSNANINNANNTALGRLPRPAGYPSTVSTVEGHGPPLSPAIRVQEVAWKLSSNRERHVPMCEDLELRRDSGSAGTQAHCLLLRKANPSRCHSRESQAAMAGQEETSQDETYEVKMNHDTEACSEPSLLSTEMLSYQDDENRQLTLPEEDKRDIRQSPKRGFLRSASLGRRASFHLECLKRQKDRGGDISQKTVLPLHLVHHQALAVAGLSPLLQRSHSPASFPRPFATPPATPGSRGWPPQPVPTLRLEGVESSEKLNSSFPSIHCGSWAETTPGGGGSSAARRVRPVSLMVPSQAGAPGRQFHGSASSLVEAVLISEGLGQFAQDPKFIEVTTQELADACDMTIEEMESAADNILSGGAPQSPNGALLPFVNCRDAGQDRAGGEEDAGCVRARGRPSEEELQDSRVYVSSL
The target in data set [2] is T2, Voltage-gated L-type calcium channel (Homo sapiens, UniProt Q13936+Q13698+Q01668+O60840). Description: Antagonist activity at L-type calcium channel in human mesoangioblast-derived myotube assessed as reduction in KCL-mediated depolarization of cytosolic (Ca2+) increase at 10 uM incubated for 25 mins in presence of KCl by live-cell imaging based analysis.
Data set [3] addresses T1, Voltage-dependent L-type calcium channel subunit alpha-1C. Description: Antagonist activity at Cav1.2 (unknown origin) stably expressed in HEK293 cells assessed as inhibition of LTCC current by Whole cell patch clamp assay. It is filed as cell-based. The conditions noted are these: for Activity: human, hek293.
Data set [4] shares this target. In words: Binding affinity to GFP-tagged Cav1.2alpha 1C (unknown orign) transfected with human HeLa cells assessed as increase in fluorescence intensity at 50 nM incubated for 5 mins by fluorescence based confocal microscopy analysis. The conditions noted are these: 0.05 µM. It is filed as cell-based.
For data set [5] the target is unchanged. Description: Binding affinity to GFP-tagged Cav1.2alpha 1C (unknown orign) transfected with human HeLa cells assessed as increase in fluorescence intensity in cytoplasm at 25 to 100 nM in presence of nifedipine by fluorescence based confocal microscopy analysis. In kind it is cell-based. To be noted: dose 25-100 nM.
Data set [6] shares this target. In words: Binding affinity to GFP-tagged Cav1.2alpha 1C (unknown orign) transfected with human HeLa cells assessed as increase in fluorescence intensity at 25 to 100 nM in presence of nifedipine by fluorescence based confocal microscopy analysis. In kind it is cell-based. To be noted: dose 25-100 nM.
The target in data set [7] is T2, Voltage-gated L-type calcium channel. Description: Binding affinity to LTCC in endogenously expressing human SH-SY5Y cells assessed as increase in fluorescence intensity at 50 to 100 nM in presence of nifedipine by fluorescence based confocal microscopy analysis. In kind it is cell-based. The conditions noted are these: dose 50-100 nM.
Data set [8] shares this target. In words: Antagonist activity at L-type calcium channel in Ca1520-loade human SH-SY5Y cells assessed as inhibition of KCL-mediated depolarization of cytosolic (Ca2+) increase incubated for 5 mins in presence of KCl by live-cell imaging based analysis.

Structures are written as SMILES. pIC50: −log10 of the molar value.

`COC(=O)C1=C(C)NC(C)=C(C(=O)OCCCCCCCCNC(=O)CCCCC[N+]2=C(/C=C/C=C/C=C3/N(C)c4ccccc4C3(C)C)C(C)(C)c3ccccc32)C1c1cccc(Cl)c1Cl` (stereo unspecified): in data set [1], the inhibition at 10 µM was found to be 46%. The Activity entry in data set [2] is on record as “Active”; in data set [3], “Not Active”.
Take `COC(=O)C1=C(C)NC(C)=C(C(=O)OCCOCCNC(=O)CCCCC[N+]2=C(/C=C/C=C/C=C3N(C)c4ccccc4C3(C)C)C(C)(C)c3ccccc32)[C@@H]1c1cccc(Cl)c1Cl`: the inhibition at 10 µM in data set [1] amounted to 70%. Besides, the result in data set [2] was Active. Besides, the pIC50 in data set [3] is 5.19.
For the compound `COC(=O)C1=C(C)NC(C)=C(C(=O)OCCOCCNC(=O)CCCCC[N+]2=C(/C=C/C=C/C=C3/N(C)c4ccccc4C3(C)C)C(C)(C)c3ccccc32)C1c1ccccc1[N+](=O)[O-]` (stereo unspecified), the inhibition at 10 µM in data set [1] came out at 83%. In addition, the result in data set [2] was Active. Also, the pIC50 in data set [3] was 5.66.
For `COC(=O)C1=C(C)NC(C)=C(C(=O)OCCCCCCNC(=O)CCCCC[N+]2=C(/C=C/C=C/C=C3/N(C)c4ccccc4C3(C)C)C(C)(C)c3ccccc32)C1c1ccccc1[N+](=O)[O-]` (stereo unspecified), in that order: 52%, “Active” and 4.90.
On the same counts, the results for `COC(=O)C1=C(C)NC(C)=C(C(=O)OCCNC(=O)CCCCC[N+]2=C(/C=C/C=C/C=C3/N(C)c4ccccc4C3(C)C)C(C)(C)c3ccccc32)C1c1cccc(Cl)c1Cl` (stereo unspecified) are 72%, “Active” and 5.37.
For `COC(=O)C1=C(C)NC(C)=C(C(=O)OCCCCCCNC(=O)CCCCC[N+]2=C(/C=C/C=C/C=C3/N(C)c4ccccc4C3(C)C)C(C)(C)c3ccccc32)C1c1cccc(Cl)c1Cl` (stereo unspecified), in that order: 50%, “Active” and 4.90.
For the compound `COC(=O)C1=C(C)NC(C)=C(C(=O)OCCOCCNC(=O)CCCCC[N+]2=C(/C=C/C=C/C=C3\N(C)c4ccccc4C3(C)C)C(C)(C)c3ccccc32)[C@H]1c1cccc(Cl)c1Cl`, the Activity entry in data set [4] is “Active”; in data set [5], “Not Active”; in data set [6], “Not Active”; in data set [7], “Not Active”; in data set [2] it was “Active”; in data set [8] (human, 5 min, dose 0.1-10000 nM), “Dose-Dependent Effect”. For the same compound, the inhibition at 10 µM in data set [1] came out at 94%. In addition, the IC50 in data set [8] stood at 1.08 µM. In data set [3], the negative logarithm of the IC50 (pIC50) is 6.19.
Regarding `COC(=O)C1=C(C)NC(C)=C(C(=O)OCCOCCOCCNC(=O)CCCCC[N+]2=C(/C=C/C=C/C=C3\N(C)c4ccccc4C3(C)C)C(C)(C)c3ccccc32)C1c1cccc(Cl)c1Cl` (stereo unspecified), the inhibition at 10 µM in data set [1] stood at 77%. Besides, in data set [2], the result was Active. The pIC50 in data set [3] is 5.46.
Take `COC(=O)C1=C(C)NC(C)=C(C(=O)OCCOCCNC(=O)CCCCC[N+]2=C(/C=C/C=C/C=C3/N(C)c4ccccc4C3(C)C)C(C)(C)c3ccccc32)C1c1cccc(Cl)c1Cl` (stereo unspecified): the inhibition at 10 µM in data set [1] is 62%. Moreover, in data set [2], the outcome was Active. The negative logarithm of the IC50 (pIC50) in data set [3] is 5.13.
For `COC(=O)C1=C(C)NC(C)=C(C(=O)OCCCCCCCCNC(=O)CCCCC[N+]2=C(/C=C/C=C/C=C3/N(C)c4ccccc4C3(C)C)C(C)(C)c3ccccc32)C1c1ccccc1[N+](=O)[O-]` (stereo unspecified), the inhibition at 10 µM in data set [1] turned out to be 87%. For the same compound, in data set [2], the outcome was Active. The pIC50 in data set [3] is 5.72.
On to `COC(=O)C1=C(C)NC(C)=C(C(=O)OCCCCCCNC(=O)CCCCCNC(=O)Oc2ccc(/C=C/C3=[N+]4C(=Cc5ccc(-c6cccs6)n5[B-]4(F)F)C=C3)cc2)C1c1cccc(Cl)c1Cl` (stereo unspecified), for which, in data set [1], the inhibition at 10 µM was found to be 24%. For the same compound, the Activity result in data set [2] and in data set [3] was “Not Active” throughout.
On to `COC(=O)C1=C(C)NC(C)=C(C(=O)OCCOCCNC(=O)CCCCC[N+]2=C(/C=C/C=C/C=C3/N(C)c4ccccc4C3(C)C)C(C)(C)c3ccccc32)C1c1ccccc1OS(=O)(=O)F` (stereo unspecified), for which the inhibition at 10 µM in data set [1] came out at 88%. Also, in data set [2], the result was Active. Besides, in data set [3], the pIC50 was 5.82.
For `COC(=O)C1=C(C)NC(C)=C(C(=O)OCCOCCNC(=O)CCCCC[N+]2=C(/C=C/C=C/C=C3/N(C)c4ccccc4C3(C)C)C(C)(C)c3ccccc32)C1c1ccccc1/C=C/C(=O)OC(C)(C)C` (stereo unspecified), in that order: 97%, “Active” and 5.97.
For `COC(=O)C1=C(C)NC(C)=C(C(=O)OC)C1c1ccccc1[N+](=O)[O-]` [NIFEDIPINE], in data set [1], the inhibition at 10 µM was found to be 102%.
